Structures are written as SMILES.

Chain of human PAD4 (hPAD4) (Q9UM07 whole entry): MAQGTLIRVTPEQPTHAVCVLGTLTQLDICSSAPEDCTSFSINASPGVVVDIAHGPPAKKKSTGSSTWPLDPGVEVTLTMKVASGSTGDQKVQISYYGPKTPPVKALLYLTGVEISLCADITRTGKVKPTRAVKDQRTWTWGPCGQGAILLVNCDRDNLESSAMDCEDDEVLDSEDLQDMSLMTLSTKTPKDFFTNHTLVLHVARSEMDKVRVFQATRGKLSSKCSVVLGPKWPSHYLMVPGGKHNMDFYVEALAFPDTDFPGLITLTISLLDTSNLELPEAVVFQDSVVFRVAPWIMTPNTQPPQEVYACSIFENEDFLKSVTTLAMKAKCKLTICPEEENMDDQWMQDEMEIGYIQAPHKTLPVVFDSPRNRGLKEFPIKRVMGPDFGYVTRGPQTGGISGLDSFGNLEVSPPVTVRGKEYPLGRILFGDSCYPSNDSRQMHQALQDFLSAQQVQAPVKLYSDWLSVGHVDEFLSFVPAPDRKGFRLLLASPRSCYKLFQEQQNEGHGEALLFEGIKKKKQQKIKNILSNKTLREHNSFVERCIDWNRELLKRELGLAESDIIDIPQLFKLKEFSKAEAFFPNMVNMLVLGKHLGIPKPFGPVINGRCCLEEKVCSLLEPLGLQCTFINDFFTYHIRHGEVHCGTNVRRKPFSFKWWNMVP

One experiment has as its target human PAD4 (hPAD4) (Homo sapiens, UniProt Q9UM07). Kind of experiment: RFMS Human PAD4 Functional Assay. Format: biochemical. As to conditions: hPAD4 RFMS IC50, human PAD4, rapid-fire mass spectrum (RFMS) assay; 5 nM hPAD4, 250 μM BAEE. In outline:
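RapidFire ESI-MS quantification, normalised to a modified-citrulline internal standard, after phenyl glyoxal (final 4 mM) derivatisation of the TCA-quenched reaction. The enzyme (10 nM) sat 30 min with compound (up to 50 μM final) before 500 μM BAEE (as added) started a 90 min, 37 °C reaction. Buffer: HEPES pH 7.5, 50 μM calcium, 5 μM TPEN.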
Usually IC50 stands for the concentration needed to halve the response being measured. With `COc1cc(C(=O)N2C[C@H]3CC[C@@H]2[C@@H]3N)cc2nc(-c3cc4cccc(C5CN(C(N)=O)C5)c4n3CC3CC3)n(C)c12` [Example 66, 3-(2-{5-[(1R,4R,7R)-7-amino-2-azabicyclo[2.2.1]heptane-2-carbonyl]-7-methoxy-1-methyl-1H-1,3-benzodiazol-2-yl}-1-(cyclopropylmethyl)-1H-indol-7-yl)azetidine-1-carboxamide], the IC50 is 30 nM.

For `COc1cc(C(=O)N2C[C@H]3CC[C@@H]2[C@@H]3N)cc2nc(-c3cc4cccc(C5CN(C(=O)C(C)(C)C)C5)c4n3CC3CC3)n(C)c12` [Example 67, 1-[3-(2-{5-[(1R,4R,7R)-7-amino-2-azabicyclo[2.2.1]heptane-2-carbonyl]-7-methoxy-1-methyl-1H-1,3-benzodiazol-2-yl}-1-(cyclopropylmethyl)-1H-indol-7-yl)azetidin-1-yl]-2,2-dimethylpropan-1-one], the IC50 came to 189 nM.

The molecule `COc1cc(C(=O)N2C[C@H]3CC[C@@H]2[C@@H]3N)cc2nc(-c3cc4cccc(C5CN(C(=O)CCC(=O)O)C5)c4n3CC3CC3)n(C)c12` [Example 68, 4-[3-(2-{5-[(1R,4R,7R)-7-amino-2-azabicyclo[2.2.1]heptane-2-carbonyl]-7-methoxy-1-methyl-1H-1,3-benzodiazol-2-yl}-1-(cyclopropylmethyl)-1H-indol-7-yl)azetidin-1-yl]-4-oxobutanoic acid] yielded an IC50 of 170 nM.

As to `COc1cc(C(=O)N2C[C@H]3CC[C@@H]2[C@@H]3N)cc2nc(-c3cc4cccc(C5CN(C(=O)C(C)(C)O)C5)c4n3CC3CC3)n(C)c12` [Example 69, 1-[3-(2-{5-[(1R,4R,7R)-7-amino-2-azabicyclo[2.2.1]heptane-2-carbonyl]-7-methoxy-1-methyl-1H-1,3-benzodiazol-2-yl}-1-(cyclopropylmethyl)-1H-indol-7-yl)azetidin-1-yl]-2-hydroxy-2-methylpropan-1-one], the midpoint of inhibition, the IC50, lay at 50 nM.

With `COc1cc(C(=O)N2C[C@H]3CC[C@@H]2[C@@H]3N)cc2nc(-c3cc4cccc(C5CN(C(=O)Nc6ccccc6)C5)c4n3CC3CC3)n(C)c12` [Example 70, 3-(2-{5-[(1R,4R,7R)-7-amino-2-azabicyclo[2.2.1]heptane-2-carbonyl]-7-methoxy-1-methyl-1H-1,3-benzodiazol-2-yl}-1-(cyclopropylmethyl)-1H-indol-7-yl)-N-phenylazetidine-1-carboxamide], inhibition was half-maximal at 15 nM (IC50).

As to `COCC(=O)N1CC(c2cccc3cc(-c4nc5cc(C(=O)N6C[C@H]7CC[C@@H]6[C@@H]7N)cc(OC)c5n4C)n(CC4CC4)c23)C1` [Example 71, 1-[3-(2-{5-[(1R,4R,7R)-7-amino-2-azabicyclo[2.2.1]heptane-2-carbonyl]-7-methoxy-1-methyl-1H-1,3-benzodiazol-2-yl}-1-(cyclopropylmethyl)-1H-indol-7-yl)azetidin-1-yl]-2-methoxyethan-1-one], the IC50 came out at 16 nM.

`COc1cc(C(=O)N2C[C@H]3CC[C@@H]2[C@@H]3N)cc2nc(-c3cc4cccc(C5CN(C(=O)Cc6ccccc6)C5)c4n3CC3CC3)n(C)c12` [Example 72, 1-[3-(2-{5-[(1R,4R,7R)-7-amino-2-azabicyclo[2.2.1]heptane-2-carbonyl]-7-methoxy-1-methyl-1H-1,3-benzodiazol-2-yl}-1-(cyclopropylmethyl)-1H-indol-7-yl)azetidin-1-yl]-2-phenylethan-1-one] returned an IC50 of 10 nM.

Consider `COc1cc(C(=O)N2C[C@H]3CC[C@@H]2[C@@H]3N)cc2nc(-c3cc4cccc(C5CN(C(=O)Cc6ccncc6)C5)c4n3CC3CC3)n(C)c12` [Example 73, 1-[3-(2-{5-[(1R,4R,7R)-7-amino-2-azabicyclo[2.2.1]heptane-2-carbonyl]-7-methoxy-1-methyl-1H-1,3-benzodiazol-2-yl}-1-(cyclopropylmethyl)-1H-indol-7-yl)azetidin-1-yl]-2-(pyridin-4-yl)ethan-1-one], for which the IC50 worked out at 5 nM.

As to `COc1cc(C(=O)N2C[C@H]3CC[C@@H]2[C@@H]3N)cc2nc(-c3cc4cccc(C5CN(C(=O)c6ccccc6)C5)c4n3CC3CC3)n(C)c12` [Example 74, (1R,4R,7R)-2-{2-[7-(1-benzoylazetidin-3-yl)-1-(cyclopropylmethyl)-1H-indol-2-yl]-7-methoxy-1-methyl-1H-1,3-benzodiazole-5-carbonyl}-2-azabicyclo[2.2.1]heptan-7-amine], the IC50 was 71 nM.

Molecule `COc1cc(C(=O)N2C[C@H]3CC[C@@H]2[C@@H]3N)cc2nc(-c3cc4cccc(C5CN(C(=O)Cc6ccccn6)C5)c4n3CC3CC3)n(C)c12` [Example 75, 1-[3-(2-{5-[(1R,4R,7R)-7-amino-2-azabicyclo[2.2.1]heptane-2-carbonyl]-7-methoxy-1-methyl-1H-1,3-benzodiazol-2-yl}-1-(cyclopropylmethyl)-1H-indol-7-yl)azetidin-1-yl]-1-(pyridin-2-yl)ethan-1-one] returned an IC50 of 34 nM.

For `COc1cc(C(=O)N2C[C@H]3CC[C@@H]2[C@@H]3N)cc2nc(-c3cc4cccc(C5CN(C(=O)Cc6cnccn6)C5)c4n3CC3CC3)n(C)c12` [Example 76, 1-[3-(2-{5-[(1R,4R,7R)-7-amino-2-azabicyclo[2.2.1]heptane-2-carbonyl]-7-methoxy-1-methyl-1H-1,3-benzodiazol-2-yl}-1-(cyclopropylmethyl)-1H-indol-7-yl)azetidin-1-yl]-2-(pyrazin-2-yl)ethan-1-one], the IC50 worked out at 19 nM.

`COc1cc(C(=O)N2C[C@H]3CC[C@@H]2[C@@H]3N)cc2nc(-c3cc4cccc(C5CN(C(=O)CC#N)C5)c4n3CC3CC3)n(C)c12` [Example 77, 3-[3-(2-{5-[(1R,4R,7R)-7-amino-2-azabicyclo[2.2.1]heptane-2-carbonyl]-7-methoxy-1-methyl-1H-1,3-benzodiazol-2-yl}-1-(cyclopropylmethyl)-1H-indol-7-yl)azetidin-1-yl]-3-oxopropanenitrile]: the IC50 was determined as 38 nM.

With `COc1cc(C(=O)N2C[C@H]3CC[C@@H]2[C@@H]3N)cc2nc(-c3cc4cccc(C5CN(C(=O)Cc6cccnc6)C5)c4n3CC3CC3)n(C)c12` [Example 78, 1-[3-(2-{5-[(1R,4R,7R)-7-amino-2-azabicyclo[2.2.1]heptane-2-carbonyl]-7-methoxy-1-methyl-1H-1,3-benzodiazol-2-yl}-1-(cyclopropylmethyl)-1H-indol-7-yl)azetidin-1-yl]-2-(pyridin-3-yl)ethan-1-one], the IC50 came out at 10 nM.

Consider `COc1cc(C(=O)N2C[C@H]3CC[C@@H]2[C@@H]3N)cc2nc(-c3cc4cccc(C5CN(C(=O)CCc6ccccc6)C5)c4n3CC3CC3)n(C)c12` [Example 79, 1-[3-(2-{5-[(1R,4R,7R)-7-amino-2-azabicyclo[2.2.1]heptane-2-carbonyl]-7-methoxy-1-methyl-1H-1,3-benzodiazol-2-yl}-1-(cyclopropylmethyl)-1H-indol-7-yl)azetidin-1-yl]-3-phenylpropan-1-one], for which the midpoint of inhibition, the IC50, lay at 12 nM.

Turning to `COc1cc(C(=O)N2C[C@H]3CC[C@@H]2[C@@H]3N)cc2nc(-c3cc4cccc(C5CN(C(=O)CCO)C5)c4n3CC3CC3)n(C)c12` [Example 80, 1-[3-(2-{5-[(1R,4R,7R)-7-amino-2-azabicyclo[2.2.1]heptane-2-carbonyl]-7-methoxy-1-methyl-1H-1,3-benzodiazol-2-yl}-1-(cyclopropylmethyl)-1H-indol-7-yl)azetidin-1-yl]-3-hydroxypropan-1-one], the half-inhibitory concentration (IC50) is 16 nM.

Regarding `COc1cc(C(=O)N2C[C@H]3CC[C@@H]2[C@@H]3N)cc2nc(-c3cc4cccc(C5CN(C(=O)Cc6nnn[nH]6)C5)c4n3CC3CC3)n(C)c12` [Example 81, 1-[3-(2-{5-[(1R,4R,7R)-7-amino-2-azabicyclo[2.2.1]heptane-2-carbonyl]-7-methoxy-1-methyl-1H-1,3-benzodiazol-2-yl}-1-(cyclopropylmethyl)-1H-indol-7-yl)azetidin-1-yl]-2-(1H-1,2,3,4-tetrazol-5-yl)ethan-1-one], half-maximal inhibition (IC50) was put at 16 nM.

The molecule `COc1cc(C(=O)N2C[C@H]3CC[C@@H]2[C@@H]3N)cc2nc(-c3cc4cccc(C5CN(C(=O)CO)C5)c4n3CC3CC3)n(C)c12` [Example 82, 1-[3-(2-{5-[(1R,4R,7R)-7-amino-2-azabicyclo[2.2.1]heptane-2-carbonyl]-7-methoxy-1-methyl-1H-1,3-benzodiazol-2-yl}-1-(cyclopropylmethyl)-1H-indol-7-yl)azetidin-1-yl]-2-hydroxyethan-1-one] had an IC50 of 10 nM.

The molecule `COc1cc(C(=O)N2C[C@H]3CC[C@@H]2[C@@H]3N)cc2nc(-c3cc4cccc(C5CN(S(=O)(=O)c6ccccc6)C5)c4n3CC3CC3)n(C)c12` [Example 83, (1R,4R,7R)-2-(2-{7-[1-(benzenesulfonyl)azetidin-3-yl]-1-(cyclopropylmethyl)-1H-indol-2-yl}-7-methoxy-1-methyl-1H-1,3-benzodiazole-5-carbonyl)-2-azabicyclo[2.2.1]heptan-7-amine] had an IC50 of 123 nM.

The same experiment, now with this note: human PAD4, rapid-fire mass spectrum (RFMS) assay; 5 nM hPAD4, 250 μM BAEE; read-out: hPAD4 RFMS IC50.
`COc1cc(C(=O)N2C[C@H]3CC[C@@H]2[C@@H]3N)cc2nc(-c3cc4cccc(C5CN(C(=O)CN)C5)c4n3CC3CC3)n(C)c12` [Example 65, 2-amino-1-[3-(2-{5-[(1R,4R,7R)-7-amino-2-azabicyclo[2.2.1]heptane-2-carbonyl]-7-methoxy-1-methyl-1H-1,3-benzodiazol-2-yl}-1-(cyclopropylmethyl)-1H-indol-7-yl)azetidin-1-yl]ethan-1-one]: the IC50 was 24 nM.

With `COc1cc(C(=O)N2C[C@H]3CC[C@@H]2[C@@H]3N)cc2nc(-c3cc4cccc(C5=CCNCC5)c4n3CC3CC3)n(C)c12` [Example 84], the IC50 was 34 nM.

As for `COc1cc(C(=O)N2C[C@H]3CC[C@@H]2[C@@H]3N)cc2nc(-c3cc4cccc(-c5ccccc5O)c4n3CC3CC3)n(C)c12` [Example 87, 2-(2-{5-[(1R,4R,7R)-7-amino-2-azabicyclo[2.2.1]heptane-2-carbonyl]-7-methoxy-1-methyl-1H-1,3-benzodiazol-2-yl}-1-(cyclopropylmethyl)-1H-indol-7-yl)phenol], the IC50 worked out at 111 nM.

(Values after patent US20220402950A1, “SUBSTITUTED BENZIMIDAZOLES AS PAD4 INHIBITORS” (BRISTOL-MYERS SQUIBB COMPANY, priority 2018, published 2022).)
